In patent publication US11370769B2, “TRPC5 inhibitors and methods of using same” (BOARD OF REGENTS OF THE UNIVERSITY OF NEBRASKA, priority 2017, dated 2022):

Biological target: T1, TRPC6 channels (Rattus norvegicus, UniProt Q99N78)
T1 construct: Acutely isolated glomeruli were prepared as described above; from tissue; host or cells: acutely isolated glomeruli (podocytes) of AT1R Tg and WT rats
T1 sequence (Q99N78 1-930): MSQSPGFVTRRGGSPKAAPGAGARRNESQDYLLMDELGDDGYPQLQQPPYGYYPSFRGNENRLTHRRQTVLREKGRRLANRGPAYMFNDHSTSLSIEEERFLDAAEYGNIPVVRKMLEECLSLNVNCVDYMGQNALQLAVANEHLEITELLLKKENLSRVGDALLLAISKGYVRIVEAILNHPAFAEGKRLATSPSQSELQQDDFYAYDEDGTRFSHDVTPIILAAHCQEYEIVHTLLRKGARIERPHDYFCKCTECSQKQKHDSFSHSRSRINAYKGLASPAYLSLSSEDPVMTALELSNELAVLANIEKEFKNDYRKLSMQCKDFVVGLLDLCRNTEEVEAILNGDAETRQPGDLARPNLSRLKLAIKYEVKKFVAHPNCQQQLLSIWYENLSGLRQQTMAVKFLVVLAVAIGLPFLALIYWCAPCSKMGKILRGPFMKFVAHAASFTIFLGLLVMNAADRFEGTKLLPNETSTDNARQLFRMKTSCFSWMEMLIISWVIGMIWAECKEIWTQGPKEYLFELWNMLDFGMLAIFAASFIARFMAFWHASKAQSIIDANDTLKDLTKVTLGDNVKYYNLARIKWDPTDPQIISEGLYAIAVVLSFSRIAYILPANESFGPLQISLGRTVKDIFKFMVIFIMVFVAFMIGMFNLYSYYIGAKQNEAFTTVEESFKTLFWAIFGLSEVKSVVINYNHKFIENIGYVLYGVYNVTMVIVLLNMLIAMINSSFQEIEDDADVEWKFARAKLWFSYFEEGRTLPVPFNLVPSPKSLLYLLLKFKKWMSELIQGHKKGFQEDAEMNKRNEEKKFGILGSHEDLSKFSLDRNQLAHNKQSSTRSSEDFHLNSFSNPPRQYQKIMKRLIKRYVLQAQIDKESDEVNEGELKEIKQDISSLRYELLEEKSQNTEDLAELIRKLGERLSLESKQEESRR
Experiment: Glomerular inside-out single-channel recordings, OAG-induced conductances
Assay type: cell-based
Details: glomeruli from age matched AT1R Tg rats and WT controls
Experimental: Acute glomeruli isolation and Ca^2+-imaging: WT and AT1R Tg littermates were killed and kidneys were quickly dissected and washed with ice-cold PBS. After isolation using the sieving technique as previously described (11), glomeruli were incubated with the Ca^2+ indicator Fura2-AM (1 μM; Invitrogen) at 37° C. for 15 min. The extracellular solution for Ca^2+-imaging contained (in mM) 140 NaCl, 5 KCl, 10 HEPES, 2 MgCl2, 2 CaCl2, 10 glucose, with pH7.4 adjusted with NaOH. Glomerular Ca^2+-imaging was performed using an inverted microscope (Olympus IX70) with a high-speed CCD camera (Hamamatsu Photonics). Images were taken and analyzed using the Metafluor software (Molecular Devices). It should be noted that Fura-2 is most often taken up by podocytes at the periphery of the isolated glomerulus, but the specificity of recordings in podocytes is best confirmed by patch clamp electrophysiology, as described below.
Glomerular single-channel recordings: Acutely isolated glomeruli were prepared as described above. Single-channel recordings were carried out using an Axopatch 200B and Digidata 1550A (Molecular Devices). Bath and pipette solutions for glomerular single-channel recording contained (in mM) 135 CH3SO3Na, 5 CsCl, 2 CaCl2, 1 MgCl2, 10 HEPES, and 10 glucose with pH7.4 adjusted with NaOH. […]

Cc1cc(N2CCCCC2)nc2ccccc12 [ML204, reference compound]
inhibition of OAG-induced conductances: no inhibition
